The source made the active and inactive calls. The calls are words filed in the database; no cut-off is given here. Some results are limits rather than exact numbers.

A short description of data set [1]: Hemolytic activity in Wistar rat RBC at 5 to 500 uM incubated for 120 mins. Type of data set: toxicity, cell-based, Erythrocyte. The settings on record: Wistar, red blood cells (erythrocytes), dose 5-500 µM, read-out: Activity.
A short description of data set [2]: Induction of Wistar rat mast cell degranulation assessed as beta-D-glusosaminidase release at 5 to 500 uM incubated for 15 mins relative to control. It is filed as toxicity, cell-based. Conditions: 0.25 h, dose 5-500 µM.
Data set [3] can be described thus: Induction of Wistar rat mast cell lysis assessed as LDH release at 5 to 500 uM incubated for 5 mins in presence of NADH relative to control. Type of data set: toxicity, cell-based. The settings on record: dose 5-500 µM. On the technique in general: LDH in the medium is a marker of cell lysis.
For the next data set, the system named is Escherichia coli. The experiment in a line: Antibacterial activity against Escherichia coli. It is filed as functional, organism-based.
The test system of the next data set is Klebsiella aerogenes. The data set is described as follows: Antibacterial activity against Enterobacter aerogenes. Type of data set: functional, organism-based.
Another data set has as its system Staphylococcus aureus. The data set is described as follows: Antibacterial activity against Staphylococcus aureus. It is filed as functional, organism-based.
For the next data set, the system named is Streptococcus pneumoniae. The experiment in a line: Antibacterial activity against Streptococcus pneumoniae. Type of data set: functional, organism-based.
Data set [4] can be described thus: Induction of edema formation in Swiss mouse at 2 ug, I.PL measured after 60 mins relative to control. Type of data set: toxicity. Conditions: in vivo, other, 1 h, dose 2 µg.
Data set [5] in a line: Induction of edema formation in Swiss mouse at 2 ug, I.PL measured after 180 mins relative to control. It is filed as toxicity. Conditions: in vivo, other, 3 h, dose 2 µg.
The nature of data set [6]: Induction of edema formation in Swiss mouse at 2 ug, I.PL measured after 300 mins relative to control. Type of data set: toxicity. Conditions: in vivo, other, 5 h, dose 2 µg.
Data set [7] in a line: Induction of nociception in Swiss mouse at 2 ug, I.PL incubated for 180 mins by von frey test relative to control. It is filed as toxicity. Conditions: in vivo, other, 3 h, dose 2 µg.
Data set [8] is described as follows: Induction of nociception in Swiss mouse at 2 ug, I.PL incubated for 60 mins by von frey test relative to control. It is filed as toxicity. The settings on record: in vivo, other, 1 h, dose 2 µg.
A short description of data set [9]: Induction of nociception in Swiss mouse at 2 ug, I.PL incubated for 300 mins by von frey test relative to control. Type of data set: toxicity. The settings on record: in vivo, other, 5 h, dose 2 µg.
The nature of data set [10]: Effect on rearing activity in Swiss mouse assessed as increase in frequency at 2 ug, I.PL incubated for 3 to 15 mins by open field test relative to control. Type of data set: toxicity. Conditions: in vivo, other, time 3-15 min, dose 2 µg.
Data set [11] in a line: Effect on locomotory activity in Swiss mouse assessed as decrease in frequency at 2 ug, I.PL incubated for 3 to 15 mins by open field test relative to control. Type of data set: toxicity. Conditions: in vivo, other, time 3-15 min, dose 2 µg.

For H-IPEDIIKK-OH, in data set [1], the hemolysis at 2 h, up to 500 µM is no more than 40%. For the same substance, the Activity result in [2] is recorded as “<= 40%”; in data set [3] it was “<= 40%”; in [4] it was “Non-Toxic”; in data set [5], “Non-Toxic”; in data set [6], “Non-Toxic”; in [7], “Non-Toxic”. Besides, the Activity entry in data set [8], in data set [9], in data set [10] and in data set [11] was “Non-Toxic” throughout. The outcome in the data set with Escherichia coli, in the data set with Klebsiella aerogenes, in the data set with Staphylococcus aureus and with Streptococcus pneumoniae was inactive.

The record behind these values is ChEMBL document CHEMBL5344445, “Profiling the Linear Peptides of Venom from the Brazilian Scorpion Tityus serrulatus: Structural and Functional Characterization” (J Nat Prod, 2024).
